Target: IMPDH human type II (Homo sapiens, UniProt P12268)
Assay: IMPDH Activity Inhibition Assay
Type: biochemical
Conditions: spectrophotometric NADH formation at 340 nm, 37° C., tight-binding equation of Henderson
Protocol: IMP dehydrogenase activity was assayed following an adaptation of the method first reported by Magasanik. [B. Magasanik et al., J. Biod. Chem., 226, p. 339 (1957), the disclosure of which is herein incorporated by reference]. Enzyme activity was measured spectrophotometrically, by monitoring the increase in absorbance at 340 nm due to the formation of NADH (ε340 is 6220 M^−1 cm^−1). The reaction mixture contained 0.1 M Tris pH 8.0, 0.1 M KCl, 3 mM EDTA, 2 mM DTT, […] and enzyme (IMPDH human type II) at a concentration of 15 to 50 nM. This solution is incubated at 37° C. for 10 minutes. The reaction is started by adding NAD to a final concentration of […] and the initial rate is measured by following the linear increase in absorbance at 340 nm for 10 minutes. For reading in a standard spectrophotometer (path length 1 cm) the final volume in the cuvette is 1.0 ml. The assay has also been adapted to a 96 well microtiter plate format; in this case the concentrations of all the reagents remain the same and the final volume is decreased to 200 μl.
For the analysis of inhibitors, the compound in question is dissolved in DMSO to a final concentration of 20 mM and added to the initial assay mixture for preincubation with the enzyme at a final volume of 2-5% (v/v). The reaction is started by the addition of NAD, and the initial rates measured as above. Ki determinations are made by measuring the initial, velocities in the presence of varying amounts of inhibitor and fitting the data using the tight-binding equation of Henderson (Henderson, P. J. F. (1972) Biochem. J. 127, 321].

| Structure (SMILES) | Ki [µM] |
| --- | --- |
| COc1ccccc1C(=O)Nc1ccccc1Oc1ccccc1 [Compound 196] | 10 to 20 |
| COc1ccccc1NC(=O)c1ccccc1O [Compound 147] | < 10 |
| O=S(=O)(Nc1ccc(-c2cnco2)cc1)c1ccccc1 [Compound 301] | 10 to 20 |
| COc1cc(Cl)ccc1NC(=O)Sc1ccccc1O [Compound 305] | < 10 |
| Cc1ccc(C(=O)Nc2ccccc2O)c(O)c1 [Compound 199] | > 20 |
| O=C(Nc1ccc(F)cc1)Sc1ccccc1O [Compound 303] | > 20 |
| COc1ccccc1NC(=O)c1ccccc1 [Compound 133] | 10 to 20 |
| O=C(Nc1ccccc1C(F)(F)F)c1cc2ccccc2cc1O [Compound 128] | 10 to 20 |
| COc1ccccc1N(C)Cc1cc2cc(Br)ccc2cc1O [Compound 151] | < 10 |
| COc1ccccc1C(=O)Nc1ccccc1O [Compound 195] | 10 to 20 |
| COc1ccc(OC)c(S(=O)(=O)Nc2ccc(-c3ncon3)cc2)c1 [Compound 316] | 10 to 20 |
| COc1ccc(Br)cc1S(=O)(=O)Nc1cc2ccccc2cc1O [Compound 319] | 10 to 20 |
| COc1ccc(Br)cc1S(=O)(=O)Nc1ccccc1O [Compound 323] | 10 to 20 |
| COc1ccccc1NC(=O)c1ccc(C)cc1O [Compound 197] | > 20 |
| O=C(Nc1cccnc1)c1cc2ccccc2cc1O [Compound 304] | > 20 |
| O=C(Nc1ccccc1Cl)c1cc2ccccc2cc1O [Compound 155] | 10 to 20 |
| COc1ccccc1NS(=O)(=O)c1ccccc1O [Compound 322] | 10 to 20 |
| COc1ccc(OC)c(S(=O)(=O)Nc2ccccc2[N+](=O)[O-])c1 [Compound 317] | 10 to 20 |
| COc1ccc(OC)c(S(=O)(=O)Nc2cccc(Br)c2)c1 [Compound 313] | 10 to 20 |
| COc1ccc(C(=O)Nc2ccccc2OC)c(O)c1 [Compound 150] | 10 to 20 |
| COc1cc(NC(=O)c2cccc(CNC(=O)O[C@H]3CCOC3)c2)ccc1-c1cnco1 [Compound 102] | < 10 |
| COc1ccccc1NC(=O)c1cccc(-c2ccccc2)c1O [Compound 152] | 10 to 20 |

| Structure (SMILES) | Ki [µM] |
| --- | --- |
| O=C(Nc1ccccc1OC(F)(F)F)c1cc2ccccc2cc1O [Compound 135] | 10 to 20 |
| O=C(Nc1ccccc1O)c1ccc2ccccc2c1O [Compound 192] | > 20 |
| COc1ccc(OC)c(S(=O)(=O)Nc2ccccc2C#N)c1 [Compound 312] | 10 to 20 |
| O=[N+]([O-])c1cccc(S(=O)(=O)Nc2ccc(-c3cnco3)cc2)c1 [Compound 300] | 10 to 20 |
| O=C(Nc1ccccc1O)c1cc(Br)ccc1O [Compound 203] | > 20 |
| COc1cc(NC(=O)Oc2cccc(CNC(=O)O[C@H]3CCOC3)c2)ccc1-c1cnco1 [Compound 326] | < 10 |
| Cc1ccc(C(=O)Nc2ccccc2Oc2ccccc2)c(O)c1 [Compound 200] | 10 to 20 |
| O=C(Nc1ccccc1F)c1cc2ccccc2cc1O [Compound 162] | 10 to 20 |
| COc1ccccc1N(Cc1ccccc1)C(=O)c1cc2ccccc2cc1O [Compound 107] | 10 to 20 |
| COc1ccc(C)cc1NC(=O)c1ccccc1OC [Compound 194] | > 20 |
| O=C(Nc1cccc(OC(F)(F)F)c1)c1ccc2ccccc2c1 [Compound 143] | < 10 |
| COc1ccc(OC)c(S(=O)(=O)Nc2cccc([N+](=O)[O-])c2)c1 [Compound 307] | 10 to 20 |
| O=C(Nc1ccccc1O)c1cc2ccccc2cc1O [Compound 190] | > 20 |
| COc1ccccc1NC(=O)c1ccccc1OC [Compound 108] | 10 to 20 |
| COc1ccccc1NC(=O)c1ccc2c(c1)OCO2 [Compound 134] | 10 to 20 |
| O=C(Nc1ccc(Oc2ccccc2)cc1)c1cc2ccccc2cc1O [Compound 185] | < 10 |
| COc1ccc(OC)c(S(=O)(=O)Nc2cccc(Cl)c2)c1 [Compound 320] | 10 to 20 |
| COc1ccccc1NC(=O)c1cccc(OC)c1O [Compound 157] | 10 to 20 |
| COc1ccc(C)cc1NC(=O)c1cc(Br)ccc1O [Compound 202] | > 20 |
| COc1ccccc1NC(=O)c1cc(Br)ccc1O [Compound 201] | 10 to 20 |
| COc1ccc(OC)c(S(=O)(=O)Nc2ccc([N+](=O)[O-])cc2)c1 [Compound 308] | 10 to 20 |

Continued, values first:

| Ki [µM] | Structure (SMILES) |
| --- | --- |
| > 20 | COc1ccc(C)cc1NC(=O)c1ccc2ccccc2c1O [Compound 191] |
| 10 to 20 | O=C(Nc1ccc(Br)cc1)c1cc2ccccc2cc1O [Compound 131] |
| 10 to 20 | COc1cc(NC(=O)c2cc3ccccc3cc2O)ccc1C#N [Compound 125] |
| 10 to 20 | COc1ccccc1NC(=O)c1ccc2ccccc2c1O [Compound 146] |
| < 10 | CSc1ccc(NC(=O)c2cc3ccccc3cc2O)cc1 [Compound 175] |
| 10 to 20 | COc1ccc(NC(=O)c2cc3ccccc3cc2O)cc1OC [Compound 187] |
| 10 to 20 | CCCC(=O)Oc1cc2ccccc2cc1C(=O)Nc1ccccc1OC [Compound 101] |
| 10 to 20 | Cc1cccc(NC(=O)c2cc3ccccc3cc2O)c1 [Compound 122] |
| 10 to 20 | CCCC(=O)Oc1cc2ccccc2cc1C(=O)Nc1ccc(C)cc1 [Compound 118] |
| < 10 | O=C(Nc1cccc(C(F)(F)F)c1)c1cc2ccccc2cc1O [Compound 123] |
| > 20 | CCCC(=O)Oc1cc2ccccc2cc1C(=O)Nc1ccc(OC)cc1 [Compound 117] |
| 10 to 20 | COc1ccccc1NC(=O)c1cc2cc(Br)ccc2cc1OC(C)=O [Compound 104] |
| < 10 | COc1ccccc1NC(=O)c1cc2ccccc2cc1OC(=O)c1ccccc1 [Compound 111] |
| 10 to 20 | N#Cc1ccccc1NC(=O)c1cc2ccccc2cc1O [Compound 144] |
| 10 to 20 | COc1ccccc1NC(=O)c1cc2ccccc2cc1OC(=O)C(C)(C)C [Compound 112] |
| 10 to 20 | COc1ccc(NC(=O)c2cc3ccccc3cc2O)cc1 [Compound 120] |
| 10 to 20 | COc1ccc(C(F)(F)F)cc1NC(=O)c1cc2ccccc2cc1O [Compound 180] |
| < 10 | CCC(=O)Oc1cc2ccc(Br)cc2cc1C(=O)Nc1ccccc1OC [Compound 127] |
| 10 to 20 | COc1ccc(C(C)(C)C)cc1NC(=O)c1cc2ccccc2cc1O [Compound 177] |
| < 10 | COc1ccccc1NC(=O)c1cc2cc(Br)ccc2cc1OCc1ccccc1 [Compound 141] |
| 10 to 20 | O=C(Nc1ccc(F)cc1)c1cc2ccccc2cc1O [Compound 166] |
| 10 to 20 | COc1ccccc1N(C)C(=O)c1cc2ccccc2cc1O [Compound 105] |
| 10 to 20 | N#Cc1cccc(NC(=O)c2cc3ccccc3cc2O)c1 [Compound 145] |

| Ki [µM] | Structure (SMILES) |
| --- | --- |
| < 10 | COc1cc(Cl)c(C)cc1NC(=O)c1cc2ccccc2cc1O [Compound 181] |
| 10 to 20 | COc1ccc(S(=O)(=O)C(F)F)cc1NC(=O)c1cc2ccccc2cc1O [Compound 160] |
| 10 to 20 | COc1ccc(C(N)=O)cc1NC(=O)c1cc2ccccc2cc1O [Compound 165] |
| > 20 | CCCC(=O)Oc1cc2ccccc2cc1C(=O)Nc1cccc(OC)c1 [Compound 116] |
| < 10 | COc1cc(NC(=O)c2cc3ccccc3cc2O)ccc1-c1cnco1 [Compound 126] |
| 10 to 20 | COc1ccccc1NC(=O)c1cc2ccccc2cc1NC(=O)C(F)(F)F [Compound 137] |
| 10 to 20 | COc1ccc(-c2ccccc2)cc1NC(=O)c1cc2ccccc2cc1O [Compound 154] |
| < 10 | COc1ccc(C)cc1NC(=O)c1cc2ccccc2cc1O [Compound 178] |
| 10 to 20 | COc1ccc(Br)cc1S(=O)(=O)Oc1cc2ccccc2cc1N [Compound 318] |
| 10 to 20 | CSc1cccc(NC(=O)c2cc3ccccc3cc2O)c1 [Compound 173] |
| < 10 | COc1cc2c(cc1NC(=O)c1cc3ccccc3cc1O)oc1ccccc12 [Compound 172] |
| 10 to 20 | COc1ccc(OC)c(NC(=O)c2cc3ccccc3cc2O)c1 [Compound 179] |
| 10 to 20 | O=C(Nc1cccc(Cl)c1)c1cc2ccccc2cc1O [Compound 156] |
| < 10 | CCCC(=O)Oc1cc2ccccc2cc1C(=O)Nc1ccc(-c2cnco2)c(OC)c1 [Compound 114] |
| 10 to 20 | O=C(Nc1cccc(F)c1)c1cc2ccccc2cc1O [Compound 163] |
| 10 to 20 | COc1cc(NC(=O)c2cc3ccccc3cc2O)cc(OC)c1 [Compound 188] |
| 10 to 20 | COc1ccccc1N(C)C(=O)c1cc2cc(Br)ccc2cc1O [Compound 149] |
| 10 to 20 | CCOc1cccc(NC(=O)c2cc3ccccc3cc2O)c1 [Compound 168] |
| < 10 | CSc1ccccc1NC(=O)c1cc2ccccc2cc1O [Compound 169] |
| < 10 | CCCC(=O)Oc1cc2ccccc2cc1C(=O)Nc1ccc(C#N)c(OC)c1 [Compound 113] |
| 10 to 20 | Cc1ccc(NC(=O)c2cc3ccccc3cc2O)cc1 [Compound 121] |
| 10 to 20 | O=C(Nc1ccc(OC(F)(F)F)cc1)c1cc2ccccc2cc1O [Compound 136] |
| < 10 | COc1ccccc1C(=O)Nc1cc2ccccc2cc1OC(=O)c1ccccc1OC [Compound 138] |

From patent US6653309B1, “Inhibitors of IMPDH enzyme technical field of the invention” (Vertex Pharmaceuticals Incorporated, priority 1999, dated 2003)
